US4232017A, “Treatment of psychic disorders and inflammation with fused isoquinolines” (Gruppo Lepetit S.p.A., priority 1978, dated 1980)
Like-named read-outs stand apart in the source and are kept apart here.

Columns and labels:
[1] = Acute toxicity (LD50) in mice, i.p.; details: mouse, in vivo, ip
Description: (§1) Moreover, they display a considerably low toxicity as, generally, their LD50 values are never lower than 600 mg/Kg when given i.p. and never lower than 1000 mg/Kg when given orally to mice.

[2] = Acute toxicity (LD50) in mice, oral; details: mouse, in vivo, p.o.
Description: as §1

rats = assay: pole climbing avoidance test (antianxiety activity; Maffii); format: in vivo; details: for responders at 60 mg/kg / responders at 15 mg/kg / responders at 30 mg/kg / responders at 10 mg/kg: Rattus norvegicus, ip; for responders at 60 mg/kg: 60 mg/Kg i.p.; for responders at 15 mg/kg: 15 mg/Kg i.p.; for responders at 30 mg/kg: 30 mg/Kg i.p.; for influence on the CR and the UR: i.p., about 15 to about 60 mg/Kg; for responders at 10 mg/kg: 10 mg/Kg i.p.
Source text: The CNS-depressant activity in mammals was investigated by means of the general psychophysic screening method, as described by S. Irwin in Psychopharmacologia (Berl.), 13, 222-257, 1968. […] It is to be noted that the above parameters are directly connected with sedative, hypnotic and miorelaxing properties. The antianxiety activity of the compounds of the invention was investigated by means of the "pole climbing avoidance test", performed as described by G. Maffii in Journ. Pharm. Pharmacol., 11, 129, 1959, wherein a conditioned animal (generally a rat) is deconditioned i.e., is brought to its normal psychic behavior by administration of a suitable amount of the compound to be tested. According to G. Maffii, an inhibition of the secondary conditioned response (CR2) without a contemporary or coupled with a not significant inhibition of the primary conditioned response (CR) and the unconditioned response (UR) is a clear indication of an antianxiety effect since these last two parameters are connected with sedative and hypnotic properties.

[3] = test system: carrageenin induced edema in rats; assay: carrageenin induced edema test (Winter et al.); format: in vivo; details: for significant reduction of the edema over the control: oral, about 1/5 to about 1/10 of the LD50
Description: As stated above, the compounds of the invention show also a remarkable antiinflammatory action, which was ascertained by means of the "carrageenin induced edema test" in rats. Said test was performed according to the operative scheme proposed by C. A. Winter et al., Proc., Soc. Exptl.

[4] = read-out: CR2 (secondary conditioned response), Decond./Conditioned
[5] = read-out: CR (primary conditioned response), Decond./Conditioned
[6] = read-out: UR (unconditioned response), Decond./Conditioned

SMILES | LD50 [1] | LD50 [2] | responders at 60 mg/kg (rats; [4]) | responders at 60 mg/kg (rats; [5]) | responders at 60 mg/kg (rats; [6]) | % Decrease of the induced edema ([3]; 50 mg/kg p.o.) | % Decrease of the induced edema ([3]; 100 mg/kg p.o.) | % Decrease of the induced edema ([3]; 200 mg/kg p.o.) | significant reduction of the edema over the control [3] | % Decrease of the induced edema ([3]; 20 mg/kg p.o.) | responders at 15 mg/kg (rats; [4]) | responders at 15 mg/kg (rats; [5]) | responders at 15 mg/kg (rats; [6]) | responders at 30 mg/kg (rats; [4]) | responders at 30 mg/kg (rats; [5]) | responders at 30 mg/kg (rats; [6]) | influence on the CR and the UR (rats) | responders at 10 mg/kg (rats; [4]) | responders at 10 mg/kg (rats; [5]) | responders at 10 mg/kg (rats; [6])
CCCCn1c(=O)c2ccccc2c2nc(C)sc21 [5(N-isomer), 4-Butyl-2-methyl-thiazolo[5,4-c]isoquinoline-5(4H)-one] | 600 mg/kg | > 1000 mg/kg | 50% | 0% | 0% | 28% | 37% | 51% | ≥ 40% |  |  |  |  |  |  |  |  |  |  | 
CCCCOc1nc2sc(C)nc2c2ccccc12 [5(O-isomer), 5-butoxy-2-methyl-thiazolo[5,4-c]isoquinoline] | 600 mg/kg |  | 50% | 0% | 0% |  |  |  |  |  |  |  |  |  |  |  |  |  |  | 
Cc1nc2c3ccccc3c(=O)n(C)c2s1 [Example 1, 2,4-Dimethyl-thiazolo[5,4-c]isoquinoline-5(4H)-one] |  | > 1000 mg/kg |  |  |  | 38% | 46% | 61% | ≥ 40% | 25% |  |  |  |  |  |  |  |  |  | 
CCn1c(=O)c2ccccc2c2nc(C)sc21 [Example 2(N-isomer), 4-Ethyl-2-methyl-thiazolo[5,4-c]isoquinoline-5(4H)-one] | 400 mg/kg |  |  |  |  |  |  |  |  |  | 50% | 0% | 0% | 80% | 0% | 0% | practically no influence |  |  | 
CCc1nc2c3ccccc3c(=O)n(C)c2s1 [Example 9, 2-Ethyl-4-methyl-thiazolo[5,4-c]isoquinoline-5(4H)-one] |  | 1000 mg/kg |  |  |  | 25% | 31% | 40% | ≥ 40% |  |  |  |  |  |  |  |  |  |  | 
Cc1nn(C)c2nc(OCCO)c3ccccc3c12 [Example 20, 5-(2-Hydroxyethoxy)-1,3-dimethyl-3H-pyrazolo[3,4-c]isoquinoline] | > 600 mg/kg |  | 90% | 30% | 0% |  |  |  |  |  |  |  |  | 70% | 30% | 0% | practically no influence | 60% | 10% | 0%
CCCCOc1nc2c(c(C)nn2C)c2ccccc12 [Example 24, 5-Butoxy-1,3-dimethyl-3H-pyrazolo[3,4-c]isoquinoline] | > 600 mg/kg | 1000 mg/kg | 100% | 30% | 0% | 26% | 38% | 45% | ≥ 40% |  |  |  |  | 60% | 0% | 0% | practically no influence |  |  | 
CCc1nn(C)c2nc(OCCO)c3ccccc3c12 [Example 25, 1-Ethyl-5-hydroxyethoxy-3-methyl-3H-pyrazolo[3,4-c]isoquinoline] | > 600 mg/kg |  | 70% | 0% | 0% |  |  |  |  |  |  |  |  | 50% | 0% | 0% | practically no influence |  |  | 
CCc1nn(C)c2nc(OCC(C)=O)c3ccccc3c12 [Example 26, 5-Acetylmethoxy-1-ethyl-3-methyl-3H-pyrazolo[3,4-c]isoquinoline] | > 600 mg/kg | > 1000 mg/kg | 100% | 0% | 0% | 30% | 37% | 43% | ≥ 40% |  |  |  |  | 50% | 0% | 0% | practically no influence |  |  | 
Cc1nn(C)c2c1c1ccccc1c(=O)n2CCN1CCN(c2ccccc2)CC1.Cl [Example 38, 1,3-Dimethyl-4-[2-(4-phenyl-1-piperazinyl)ethyl]-3H-pyrazolo[3,4-c]isoquinoline-5(4H)-one hydrochloride] | > 600 mg/kg |  | 100% | 40% | 0% |  |  |  |  |  |  |  |  | 90% | 10% | 0% | practically no influence |  |  | 
